Experimental data reported in patent publication US9376421B2, “Compounds and methods for myotonic dystrophy therapy” (The Board of Trustees of the University of Illinois, priority 2014, dated 2016).
Entries after “also recorded” stand apart in the source; their conditions may differ.

Tests used:
(CUG)16 = (CUG)16 cleavage screening gel assay; format: biochemical; conditions: ligand 100 μM, (CUG)16 100 nM, 12 h, pH 7.4, 37° C., EtBr stain
Procedure: FIG. 2. Cleavage screening gel. (CUG)16 (SEQ ID NO: 1) (100 nM) was incubated with ligands (100 μM) and (CUG)16 (SEQ ID NO: 1) (100 nM), 12 h, 37° C. The reaction mixture was loaded onto a 20% denaturing PAGE gel and RNA was detected by post-staining with EtBr.
The potential cleavage activity of 4-9 was screened using a simple gel shift assay with (CUG)16 (SEQ ID NO: 1). To screen the agents, each agent was incubated for 12 h with unlabeled (CUG)16 (SEQ ID NO: 1) at a final concentration of 100 μM at pH 7.4. The mixture was separated on an RNA denaturing gel and stained with EtBr (FIG. 2). No loss of (CUG)16 (SEQ ID NO: 1) intensity was observed upon treatment with 2, 7, or tris(2-aminoethyl)amine (10).
RNA was fast folded at 95° C. for 5 min, followed by placing in ice for 10 min. RNA with a final concentration of 100 nM was incubated with cleaving agents 100 μM (in screening assays) and with ligand 9 at different concentrations (5, 10, 50, 100 μM). The cleaving buffer was 50 mM Tris buffer (pH 7.4) containing 150 mM NaCl and 2 mM MgCl2. The final volume of the reaction mixture was 10 μL. The reaction was quenched by adding 8 μL of 8 M urea and 2 μL of RNA loading dye followed by heating at 95° C. for 5 min. The mixture was separated on a 20% RNA denaturing gel. For non-labeled RNA, the gel was stained with EtBr and observed under UV. […]

d(CTG)12 = assay: Isothermal titration calorimetry, d(CTG)12; format: binding; conditions: 25° C., 20 mM MOPS pH 7.0, 300 mM NaCl
Procedure: (§1) To directly assess the DNA-targeting ability of 9, ITC experiments were performed with oligonucleotide analogs of the various trinucleotide repeat sequences (Table 1). […] This supports the idea that 9 inhibits the transcription of CTG^exp by stabilizing its hairpin structure. […] The in vitro transcription experiment using (CTG[…]CAG)74 (SEQ ID NOS 3-4, respectively) and compounds 2, 5-7, and 9 was repeated but with (CUG)16 (SEQ ID NO: 1) added as a competitor.
(§2) Isothermal titration calorimetry (ITC) measurements were performed at 25° C. on a MicroCal VP-ITC (MicroCal, Inc., Northampton, Mass.). A standard experiment consisted of titrating 10 μL of a 500 μM ligand solution from a […] syringe (rotating at 300 rpm) into a sample cell containing 1.42 mL of a 10 μM DNA or RNA solution. An ITC experiment consisted of 28 total injections (first injection was 5 μL, subsequent injections were 10 μL), with a 10 s duration per injection and delay of 380 s between injections. The initial delay prior to the first injection was 300 s. To derive the heat associated with each injection, the area under each isotherm (microcalories per second versus seconds) was determined by integration by the graphing program Origin 7.0 (MicroCal, Inc. Northampton, Mass.). […]

d(CAG)12 = assay: Isothermal titration calorimetry, d(CAG)12; format: binding; conditions: 25° C., 20 mM MOPS pH 7.0, 300 mM NaCl
Procedure: as §1, §2

cTNT32 = assay: Ligand-RNA binding affinity, cTNT32
HIV FS = assay: Ligand-RNA binding affinity, HIV FS; parameters: species or system HIV-1
[1] = test system: Drosophila bearing i(CUG)60; assay: Treatment of control Drosophila bearing i(CUG)60; conditions: in vivo
Source text: FIG. 15A-C. Rescuing disease phenotypes in DM1 Drosophila with ligands 2 and 9. […] The error bars represent the standard deviation of three independent experiments (“(CTG)60” is disclosed as SEQ ID NO: 5).

MBNL1-CUGexp complex = conditions: previously reported; cited from earlier work
[2] = test system: insulin receptor (IR) minigene splicing; conditions: DM1 model cell cultures; cited from earlier work
cTNT minigene splicing = conditions: DM1 model cell cultures; cited from earlier work
cells = conditions: cited from earlier work
[3] = cited from earlier work

Structure (SMILES): N=C(NCCCCNc1nc(N)nc(N)n1)c1ccc(C(=N)NCCCCNc2nc(N)nc(N)n2)cc1 [Ligand 2]
- loss of (CUG)16 intensity (RNA cleavage) ((CUG)16): No loss
- binding affinity toward d(CTG)12 by ITC (d(CTG)12): lack of binding affinity; also recorded: no detectable binding
- binding affinity toward d(CAG)12 by ITC (d(CAG)12): lack of binding affinity
- affinity toward cTNT32 (cTNT32): no affinity
- affinity toward HIV FS (HIV FS): no affinity
- effects on larval locomotion and eyes of i(CUG)60 Drosophila [1]: no effects
- KI, inhibition of MBNL binding (MBNL1-CUGexp complex): low micromolar
- rescue of splicing defect of IR minigene (earlier work) [2]: partially rescued
- rescue of splicing defect of cTNT minigene (earlier work) (cTNT minigene splicing): partially rescued
- cell permeability / cell uptake (cells): better cell uptake
- water solubility in comparison to 1 [3]: higher water solubility
